Read-outs that look alike come from different tables or passages of the source. One block for each compound: values may come before it.
Legend:
[1] = Stability of 2.3 mM furimazine at 37° C. in the dark with or without 200 mM thionucleoside, luminescence with NANOLUC enzyme; format: physicochemical; conditions: 50% propylene glycol:50% ethanol
Method: Specifically, a stock solution of furimazine in 50% propylene glycol:50% ethanol (v/v) was prepared, in which the final concentration of furimazine by absorbance was 4.6 mM. The furimazine stock solution was then diluted 1:1 in 50% propylene glycol:50% ethanol (v/v) to create a control solution without the additives ATT, TAK-0014 and TAK-0002 (i.e., “no additive furimazine” control) and containing 2.3 mM furimazine. 400 mM stock solutions of ATT, TAK-0014 and TAK-0002 were prepared in 50% propylene glycol:50% ethanol (v/v). Each of the ATT, TAK-0014 and TAK-0002 stock solutions was then diluted 1:1 in the 4.6 mM furimazine stock solution to yield solutions containing 200 mM ATT, TAK-0014 or TAK-0002, and 2.3 mM furimazine.
Each sample was separated into multiple amber tubes and incubated at 37° C. in a dark incubator (i.e., in the absence of light). Aliquots were taken from each sample at various time points and stored at −20° C. in the dark (i.e., in the absence of light) until all time points were collected.
To measure luminescence in the aliquots, each aliquot was diluted 1:50 in buffer (NANOGLO buffer, Promega Corporation) to yield 46 μM furimazine. These diluted aliquots were further diluted 1:10 in buffer (NANOGLO buffer, Promega Corporation) to yield 4.6 μM furimazine. 504 of each dilution (i.e., the twice diluted (0.1) aliquots) was mixed with 504, of CO2-independent media+10% fetal bovine serum (FBS) and 0.4 ng/mL luminogenic enzyme (NANOLUC enzyme, Promega Corporation). Luminescence was measured on a luminometer (GLOMAX Multi Plus luminometer, Promega Corporation). Relative light units (RLUs) were normalized for each time point by the RLU value at the 0 days time point. The percent activity from the 0 days time point (i.e., t=0) was plotted against time (days) for each sample as shown in FIG. 15A. In FIG. 15A, B-ATT denoted TAK-0002 and E-ATT denoted TAK-0014.
Error in Table 15 was the standard error from a regression calculation and Fz denoted furimazine, B-ATT denoted TAK-0002, and E-ATT denoted TAK-0014.

[2] = Stability of 1.25 mM coelenterazine in 50% ethanol and 50% propylene glycol with or without 225 mM ATT, HPLC and Arrhenius plots; format: physicochemical; conditions: for half-life at 1.25 mM: solution of 50% ethanol and 50% propylene glycol
Method: The stability of coelenterazine in the presence and absence of ATT was measured over time at different temperatures. Specifically, 1.25 mM coelenterazine was present in a solution of 50% ethanol and 50% propylene glycol (i.e., the solution without ATT) or a solution of 50% ethanol and 50% propylene glycol with 225 mM ATT (i.e., the solution with ATT). These two solutions were incubated at −20° C., room temperature (RT), 40° C., or 60° C. and analyzed at 0 days, 1 day, 3 days, 7 days, 15 days, and 30 days.
Following incubation, high performance liquid chromatography (HPLC) was utilized to identify the components of the respective solutions at each time point. Specifically, an Agilent 1100 HPLC instrument was used and equipped with a quaternary pump, thermostatted autosampler and column compartment, and a G1311B diode-array detector. The column used was a Synergi-MAX-RP (Phenomenex, Torrance, Calif.) 100 AÅ 50×4.6 2.5 μm. The run on the HPLC was a gradient run with 0.1% TFA in water and acetonitrile. Absorbance was measured at 262 nanometers (nm). Standards of coelenterazine and its known degradants were run to confirm both the retention time and absorbance trace. 5 μl of each solution was injected and the retention time of coelenterazine was 3.9 minutes at room temperature.
The results of the HPLC analysis are shown below in Tables 1 and 2 and FIGS. 1A and 1B, in which the values are reported as relative peak area percentage at 262 nm (i.e., the lamba max of the substrate). […] In each of FIGS. 1A and 1B, diamond is 1.25 mM coelenterazine incubated over time with or without 225 mM ATT, respectively, at −20° C., triangle is 1.25 mM coelenterazine incubated over time with or without 225 mM ATT, respectively, at room temperature (RT), star is 1.25 mM coelenterazine incubated over time with or without 225 mM ATT, respectively, at 40° C., and cross is 1.25 mM coelenterazine incubated over time with or without 225 mM ATT, respectively, at 60° C.
From the HPLC analysis, the half-life of coelenterazine in the presence of ATT at 40° C. and 60° C. was calculated to be 23 days and 5 days, respectively, while the half-life of coelenterazine in the absence of ATT at 40° C. and 60° C. was calculated to be 9.5 days and 2 days, respectively (see Table 3 below).
Additionally, Arrhenius plots were generated for coelenterazine in the presence and absence of ATT to calculate the half-life of coelenterazine at various temperatures. The Arrhenius equation is as follows: […]
In FIG. 7, the slope was −8636.59, the intercept was 24.1199, and R^2 was 0.9983.
In FIG. 8, the slope was −7382.51, the intercept was 21.2598, and R^2 was 0.9570.

[3] = decomposition of coelenterazine

Compound: CCc1n[nH]c(=S)[nH]c1=O [TAK-0014]
stabilization of furimazine against decomposition in the absence of light [1]: stabilized furimazine against decomposition in the absence of light

relative peak area percentage at 262 nm ([2]; 40° C., 0 days): 96.5%
relative peak area percentage at 262 nm ([2]; 40° C., 1 day): 92.2%
relative peak area percentage at 262 nm ([2]; 40° C., 3 days): 84.9%
relative peak area percentage at 262 nm ([2]; 40° C., 15 days): 12.6%
relative peak area percentage at 262 nm ([2]; 60° C., 0 days): 96.5%
relative peak area percentage at 262 nm ([2]; 60° C., 1 day): 79.6%
relative peak area percentage at 262 nm ([2]; 60° C., 3 days): 36.8%
relative peak area percentage at 262 nm ([2]; RT, 0 days): 96.5%
relative peak area percentage at 262 nm ([2]; RT, 1 day): 96.1%
relative peak area percentage at 262 nm ([2]; RT, 3 days): 94.0%
relative peak area percentage at 262 nm ([2]; RT, 7 days): 91.0%
relative peak area percentage at 262 nm ([2]; RT, 15 days): 87.4%
relative peak area percentage at 262 nm ([2]; RT, 30 days): 57.7%
half-life at 1.25 mM ([2]; 20° C., read-out: T1/2 Calculated from Arrhenius (converted)): 852 h
half-life at 1.25 mM ([2]; 40° C., read-out: T1/2 Calculated from Arrhenius (converted)): 170 h
half-life at 1.25 mM ([2]; 40° C., read-out: T1/2 Estimated from graph (converted)): 228 h
half-life at 1.25 mM ([2]; 60° C., read-out: T1/2 Calculated from Arrhenius (converted)): 40.8 h
half-life at 1.25 mM ([2]; 60° C., read-out: T1/2 Estimated from graph (converted)): 48 h
half-life at 1.25 mM ([2]; −20° C., read-out: T1/2 Calculated from Arrhenius (converted)): 46500 h
relative peak area percentage at 262 nm ([2]; −20° C., 0 days): 96.5%
relative peak area percentage at 262 nm ([2]; −20° C., 1 day): 97.2%
relative peak area percentage at 262 nm ([2]; −20° C., 3 days): 96.4%
relative peak area percentage at 262 nm ([2]; −20° C., 7 days): 96.5%
relative peak area percentage at 262 nm ([2]; −20° C., 15 days): 96.5%
relative peak area percentage at 262 nm ([2]; −20° C., 30 days): 86.2%
Compound: O=c1c(Cc2ccc(O)cc2)nc2c(Cc3ccccc3)[nH]c(-c3ccc(O)cc3)cn1-2 [Coelenterazine (27-957-28), coelenterazine]
Arrhenius plot intercept [2, 3]: 21.2598
Arrhenius plot slope [2, 3]: −7382.51

Compound: O=c1[nH]c(=S)[nH]nc1Cc1ccccc1 [TAK-0002, 6-benzyl-3-sulfanyl-1,2,4-triazin-5-ol]
stabilization of furimazine against decomposition in the absence of light [1]: stabilized furimazine against decomposition in the absence of light
